Assay results: US8609715B2, “Heteroarylcarboxylic acid ester derivative” (Ajinomoto Co., Inc., priority 2009, dated 2013)

What follows are compounds tested on KK-A^y/JCL mice (assay: Evaluation of antidiabetic action (blood glucose level)). Conditions: dose 5.6 mg/100 g mixed in feed CRF-1, after one week of dosing.
Type: in vivo
Text: Evaluation of Antidiabetic Action KK-A^y/JCL mice (male, 5- to 7-week-old, CLEA Japan, Inc.) known to spontaneously develop obese type 2 diabetes were purchased and, after one week of preliminary rearing period, grouped (6 per group) with the body weight and non-fasting blood glucose levels as indices. The animals were individually housed in a polycarbonate cage and allowed to drink water freely from a watering bottle. […] CRF-1 alone was given to the control group. After one week of dosing period, the blood (6 μL) was drawn from the tail vein of the animals, and the blood glucose level was measured by ACCU-CHEK Aviva (Roche Diagnostics K.K.). A significant difference from the control group was detected by Dunnett's multiple comparison test or Student's t-test (significance level less than 5%).

Compound	Mean blood glucose level [mg/dL]
CC(Cc1ccc(C(=O)Oc2ccc(C(=N)N)cc2)o1)C(=O)N[C@H](CC(=O)O)C(=O)O.O=C(O)C(F)(F)F (stereo partly drawn) [A-28 hydrochloride]	219
CC(Cc1ccc(C(=O)Oc2ccc(C(=N)N)cc2)s1)C(=O)N[C@@H](CC(=O)O)C(=O)O.O=C(O)C(F)(F)F (stereo partly drawn) [B-18 hydrochloride]	217
CC(Cc1ccc(C(=O)Oc2ccc(C(=N)N)cc2F)s1)C(=O)N[C@@H](CC(=O)O)C(=O)O.O=C(O)C(F)(F)F (stereo partly drawn) [B-20 hydrochloride]	197
CC(Cc1ccc(C(=O)Oc2ccc(C(=N)N)cc2)s1)C(=O)N[C@H](CC(=O)O)C(=O)O.Cl (stereo partly drawn) [B-23 hydrochloride]	198
N=C(N)c1ccc(OC(=O)c2ccc(CCC(=O)N[C@@H](CC(=O)O)C(=O)O)s2)c(F)c1.O=C(O)C(F)(F)F [B-32 hydrochloride]	249

Same assay, conditions: dose 16.8 mg/100 g mixed in feed CRF-1, after one week of dosing

Compound	Mean blood glucose level [mg/dL]
CC(Cc1ccc(C(=O)Oc2ccc(C(=N)N)cc2)s1)C(=O)N[C@@H](CC(=O)O)C(=O)O.O=C(O)C(F)(F)F (stereo partly drawn) [B-18 hydrochloride]	138
